Data: US10017768B2, “Method of treatment of chlamydial infections with selected EGFR inhibitors” (priority 2013, dated 2018)
“Also recorded” adds a separate entry of the source.

Experiments:
F-actin = assay: Organization of F-actin at the chlamydial inclusion periphery (confocal microscopy); type: cell-based, human; conditions: C. trachomatis 24 h
Protocol: Immunofluorescence. Cells were infected with C. trachomatis as described above. The cells were washed 5 times with PBS and fixed at either 2.5 hpi or 24 hpi with 4% PFA for 10 min and blocked with 5% BSA for 1 h. After washing with TBS (50 mM Tris HCl, pH 7.4 and 150 mM NaCl) the cells were permeabilized for 15 min with 0.1% Triton X-100 and again washed with TBS followed by incubation with the indicated primary antibodies overnight. […] After repeated washings, the coverslips were mounted and analyzed using Zeiss LSM 510 or 710 laser scanning confocal microscope. For the studies shown in FIG. 1, Panel A, C. trachomatis inclusions were stained using the Pathfinder Chlamydia Culture Confirmation System (BioRad, Hercules, Calif., USA). At 24 h post C. trachomatis infection, cells were fixed with methanol for 10 min at room temperature and stained with the FITC conjugated pathfinder anti-chlamydial mAb according to the manufacturer's protocol (Bio-Rad, Hercules, Calif.). For the co-localization studies, 30,000 HeLa cells were seeded into EZ slide 4-well glass slides (Millipore, Temecula, Calif., USA) and infected with C. trachomatis as described above for 2.5 h the next day. Cells were fixed 24 h later in 4% formaldehyde in PBS for 15 min, permeabilized in 0.1% Triton X-100 for 10 min, and blocked in 1% BSA for 1 h at room temperature. […]

C. trachomatis [1] = assay: Number, size and development of chlamydial inclusions in HeLa cells (confocal microscopy, ImageJ); type: cell-based, Chlamydia trachomatis strain D; conditions: for Inclusion size / Number of inclusions: C. trachomatis 24 h; for Inclusion development: total infection 24 h
Protocol: Propagation of Chlamydia and infections. Chlamydia trachomatis strain D (C. trachomatis) was propagated in HeLa cells grown in complete DMEM containing cyclohexamide (2 μg/ml). After 48 h, infected cells were harvested in sucrose-phosphate-glutamate (SPG) buffer, ruptured by vortexing with 3 mm glass beads. EBs were purified using previously described methods. The resulting bacterial pellet was resuspended in cold SPG buffer with a 21 to 22-gauge injection needle and stored in aliquots at −80° C. For infection, chlamydial EBs were added to cells in monolayer (80% confluence) at a multiplicity of infection (MOI) of 2-10 for all studies included here. Centrifugation was not used during the infection.
siRNA transfections. […] After 24 h, transfected cells were replated for a second round of transfection. After another 24 h, cells were infected with C. trachomatis and incubated for different time intervals (siRNA was maintained during the infection) according to the experimental design and were either stained for analyzing the inclusion development or prepared for Western blot analysis.
(§1) EGFR inhibitor treatment. […] The cells were pretreated with Erlotinib (25 μM) for 2 h and then infected with C. trachomatis. […] The inhibitor concentration was maintained during the infection. In certain experiments in which protein phosphorylation was investigated (FIG. 1, Panels B, D, F and G, FIG. 2, FIG. 3 and FIG. 11) the cells were serum starved overnight before drug treatment and C. trachomatis infection. […] Infected samples were used either for Western blotting or confocal imaging as described below. In another set of experiments the cells were infected with C. trachomatis followed by addition of Erlotinib at 2.5, 5 and 18 hpi. The total time for C. trachomatis infection was 24 h after which the samples were used for Western blotting or confocal imaging.
Immunofluorescence. Cells were infected with C. trachomatis as described above. The cells were washed 5 times with PBS and fixed at either 2.5 hpi or 24 hpi with 4% PFA for 10 min and blocked with 5% BSA for 1 h. After washing with TBS (50 mM Tris HCl, pH 7.4 and 150 mM NaCl) the cells were permeabilized for 15 min with 0.1% Triton X-100 and again washed with TBS followed by incubation with the indicated primary antibodies overnight. […] After repeated washings, the coverslips were mounted and analyzed using Zeiss LSM 510 or 710 laser scanning confocal microscope. For the studies shown in FIG. 1, Panel A, C. trachomatis inclusions were stained using the Pathfinder Chlamydia Culture Confirmation System (BioRad, Hercules, Calif., USA). At 24 h post C. trachomatis infection, cells were fixed with methanol for 10 min at room temperature and stained with the FITC conjugated pathfinder anti-chlamydial mAb according to the manufacturer's protocol (Bio-Rad, Hercules, Calif.). For the co-localization studies, 30,000 HeLa cells were seeded into EZ slide 4-well glass slides (Millipore, Temecula, Calif., USA) and infected with C. trachomatis as described above for 2.5 h the next day. Cells were fixed 24 h later in 4% formaldehyde in PBS for 15 min, permeabilized in 0.1% Triton X-100 for 10 min, and blocked in 1% BSA for 1 h at room temperature. […] The slides were mounted with Fluoromount mounting medium (Sigma Aldrich, St. Louis, Mo., USA), sealed, and examined using Zeiss 710 laser scanning confocal microscope.
BAPTA/AM and Ionomycin treatment. Monolayers of HeLa cells were washed with PBS and replaced with calcium free DMEM+1% FBS and pretreated for 1 h with BAPTA/AM (15 μM) followed by C. trachomatis infection for 24 h. BAPTA/AM concentration was maintained during the C. trachomatis infection. The control cells were treated with DMSO (<0.1%) followed by 24 h of C. trachomatis infection. In another set of experiments, HeLa cells were infected with C. trachomatis followed by addition of BAPTA/AM (15 μM) or DMSO at 2 or 5 hpi. The total time for C. trachomatis infection was 24 h.

chlamydial EBs = assay: Control experiment: viability of elementary bodies (EBs) treated with Erlotinib and Cetuximab (Hsp60 Western blot); type: cell-based, Chlamydia trachomatis strain D; conditions: EBs with Erlotinib 25 μM or Cetuximab 20 μg/ml for 2.5 h, HeLa infection 24 h
Text: Control experiments. […] EB pellets were washed and resuspended in SPG buffer and used for subsequent HeLa cell infection. At 24 hpi cells were lysed for Western blotting of chlamydial Hsp60 antigen.

chlamydial Hsp60 = assay: Western blot analysis of chlamydial Hsp60 in infected HeLa cells; type: cell-based, Chlamydia trachomatis strain D
Protocol: (§2) Immunoblotting. Cells were harvested and lysed in modified RIPA buffer (50 mM Tris, 150 mM NaCl, 1% sodium deoxycholate, 1% NP-40, 1 mM sodium fluoride) supplemented with protease inhibitor cocktail and phosphatase inhibitor tablet (Roche). For Western blotting of C. trachomatis antigens, the C. trachomatis-infected cells were lysed in 20 mM HEPES buffer (pH 8.0) containing 8 M urea supplemented with protease inhibitors. Cell lysates were incubated on ice for 1 h and then sonicated briefly. The soluble protein fraction was collected by centrifugation at 10,000 rpm. Total protein was estimated using the BCA method and equal amounts of proteins (10-20 μg) were processed for immunoblotting. Proteins were resolved on 10% SDS polyacrylamide gel and transferred onto a nitrocellulose membrane. The blot was blocked using 3% BSA and incubated with the indicated antibodies. ECL was used to detect the proteins according to the manufacturer's instructions.
as §1

HeLa cells = assay: Cell viability assay (MTT); type: cell-based, human; conditions: 25 μM Erlotinib for 24 h
Protocol: Cell proliferation assay. To ensure that the dose of Erlotinib (25 μM) provided maximal inhibition without affecting cell viability, MTT assays were performed. HeLa cells were cultured for 24 h, treated with 25 μM Erlotinib and incubated at 37° C., 5% CO2 for 24 h. After washing the cells, the procedure for cell viability assay was followed as per manufacturer's instructions (Roche).

C. trachomatis [2] = assay: Transmission electron microscopy of HeLa cells infected with C. trachomatis; type: cell-based, Chlamydia trachomatis strain D; conditions: C. trachomatis 24 h, vs respective controls
Protocol: Transmission electron microscopy. HeLa cells were infected with C. trachomatis as described above. […] The cells were then washed and post-fixed for 1 h in 1% osmic acid in 0.1 N Millonig's buffer followed by 1 h treatment with 1% uranyl acetate. […] Thin sections were then cut with a Reichert ultracut E microtome and stained with 1% uranyl acetate and Reynold's lead citrate solutions, followed by the analysis using 80 kV Tecnai Spirit BioTwin transmission electron microscope.

[3] = system: EGFR, PLCγ1, STAT5 and Akt; assay: Western blot of C. trachomatis-induced phosphorylation of EGFR and downstream effectors in HeLa cells; type: cell-based, human; conditions: 25 μM Erlotinib for 2 h followed by Ct infection for 2.5 h
Protocol: as §2
EGFR inhibitor treatment. […] The cells were pretreated with Erlotinib (25 μM) for 2 h and then infected with C. trachomatis. […] The inhibitor concentration was maintained during the infection. In certain experiments in which protein phosphorylation was investigated (FIG. 1, Panels B, D, F and G, FIG. 2, FIG. 3 and FIG. 11) the cells were serum starved overnight before drug treatment and C. trachomatis infection. […]

intracellular calcium = assay: Intracellular calcium staining (fluorescence microscopy) in HeLa cells; type: cell-based, human
Protocol: Intracellular calcium staining. Cells were washed with calcium free incomplete DMEM and incubated with 2 μM Fluo-4 AM diluted in Ca^2++ free incomplete DMEM at 37° C. for 30 min. The cells were then washed with Ca^2++ free HBSS and analyzed for calcium levels using an Olympus IX71 fluorescence microscope.
BAPTA/AM and Ionomycin treatment. Monolayers of HeLa cells were washed with PBS and replaced with calcium free DMEM+1% FBS and pretreated for 1 h with BAPTA/AM (15 μM) followed by C. trachomatis infection for 24 h. BAPTA/AM concentration was maintained during the C. trachomatis infection. The control cells were treated with DMSO (<0.1%) followed by 24 h of C. trachomatis infection. In another set of experiments, HeLa cells were infected with C. trachomatis followed by addition of BAPTA/AM (15 μM) or DMSO at 2 or 5 hpi. The total time for C. trachomatis infection was 24 h. To induce mobilization of calcium from intracellular stores to the cytoplasm, cultured cells were pretreated for 1 h with 1 μg/ml Ionomycin before chlamydial infection. C. trachomatis-infected cells were washed three times with PBS after 24 hpi and processed for immunofluorescence as described above.

C. trachomatis [4] = assay: Inside out staining: chlamydial attachment and entry into the host cell; type: cell-based, Chlamydia trachomatis strain D; conditions: HeLa cells, C. trachomatis 2.5 h
Protocol: Inside out staining. Differential staining of external and internalized bacteria was performed as described previously and using three independent studies. Briefly, cells were grown overnight in 2-well Lab-Tek chamber slides and treated with either EGFR inhibitors or siRNA as described above and subsequently infected with Chlamydia for 2.5 h at 37° C. to allow for bacterial attachment and internalization. […] Infected cells were washed five times in PBS and fixed in 1% paraformaldehyde (PFA). After fixation, cells were blocked in 5% BSA for 1 h and then incubated with FITC-conjugated antibody against chlamydial EBs for 1 h to stain external EBs. Cells were then permeabilized with 0.1% Triton X-100, blocked again, and incubated with antibody against chlamydial LPS followed by incubation with rhodamine-conjugated anti-goat antibody to stain intracellular and extracellular EBs. Imaging was performed using confocal microscopy (Carl Zeiss, Germany). The quantification for the inside out experiments was performed manually based on the number of attached EBs observed per infected cell. The statistical analysis was based on imaging data collected from fifteen fields containing 3-10 cells per field as described below.
Similarly, fifteen random fields (3-10 cells per field) were used for the inside out experiments. All results are presented as mean±SEM. […]

[5] = HeLa cells pre-treated with BAPTA/AM 15 μM for 1 h, calcium free DMEM
[6] = HeLa cells treated before infection (Erlotinib 25 μM, Cetuximab 20 μg/ml or siRNA), vs DMSO, IgG or control siRNA

## CC(=O)OCOC(=O)CN(CC(=O)OCOC(C)=O)c1ccccc1OCCOc1ccccc1N(CC(=O)OCOC(C)=O)CC(=O)OCOC(C)=O [BAPTA/AM]
F-actin; HeLa cells pre-treated with BAPTA/AM for 1 h
  Assembly of F-actin at the inclusion periphery: diffused assembly of F-actin at the inclusion periphery
C. trachomatis [1]; [5]
  Inclusion size: significant decrease; also recorded: significantly reduced
  Number of inclusions: significant decrease; also recorded: significantly reduced
C. trachomatis [1]; HeLa cells, BAPTA/AM 15 μM added at 2 or 5 hpi, vs DMSO
  Inclusion development: Impaired inclusion formation; also recorded: impaired inclusion development

## C#Cc1cccc(Nc2ncnc3cc(OCCOC)c(OCCOC)cc23)c1 [Erlotinib]
Chlamydial EBs
  Chlamydial Hsp60 antigen load in cells infected with drug-treated vs untreated EBs (EB viability): comparable; also recorded: no difference
Chlamydial Hsp60; HeLa cells treated before infection, C. trachomatis 2.5 h
  Chlamydial Hsp60 levels: significant (P<0.001) reduction
Chlamydial Hsp60; HeLa cells, Erlotinib 25 μM added at 2.5 hpi, total infection 24 h
  Chlamydial Hsp60: Significantly lower expression; also recorded: Significant decrease
Chlamydial Hsp60; HeLa cells, Erlotinib 25 μM followed by Ct infection for 24 h
  Chlamydial Hsp60 antigen: marked decrease
HeLa cells
  Viability of HeLa cells: did not reduce the viability; also recorded: did not affect the viability
C. trachomatis [2]
  Inclusion morphology by transmission electron microscopy: small inclusions; also recorded: smaller and less mature
[3]
  EGFR phosphorylation induced by Ct infection: an increase in EGFR phosphorylation upon Ct infection in the absence of Erlotinib but not in the presence of the drug
Intracellular calcium; Erlotinib added at 2.5 and 5 hpi, stained at 24 hpi
  Calcium signal in C. trachomatis-infected cells (Fluo-4 AM): significant drop in calcium signal; also recorded: weak calcium signal
C. trachomatis [4]
  Chlamydial binding to the host cell surface (cell-associated bacteria, external+internalized): Significant reduction
F-actin; HeLa cells with EGFR inhibition
  Assembly of F-actin at the inclusion periphery: altered
C. trachomatis [1]; [6]
  Inclusion size: Significant reduction
  Number of inclusions: significantly reduced
C. trachomatis [1]; HeLa cells, Erlotinib added at 2.5 hpi
  Inclusion development: impaired regular inclusion formation and resulted in formation of numerous bacterial aggregates; also recorded: incomplete inclusion development and bacterial aggregates
C. trachomatis [1]; HeLa cells, Erlotinib added at 5 hpi
  Inclusion development: impaired regular inclusion formation and resulted in formation of numerous bacterial aggregates; also recorded: incomplete inclusion development and bacterial aggregates
C. trachomatis [1]; HeLa cells, Erlotinib added at 18 hpi
  Inclusion development: did not significantly affect; also recorded: Well-developed C. trachomatis inclusions

## C[C@H](CCC(=O)O)C[C@H](C)C[C@H](C)C(=O)/C=C(\O)[C@H](C)C[C@H](C)C/C=C/[C@@H](C)[C@@H](O)[C@@H](C)[C@@H](O)C[C@@H]1CC[C@@](C)([C@H]2CC[C@@](C)([C@@H](C)O)O2)O1 [Ionomycin]
Intracellular calcium; Ionomycin 1 μg/ml for 1 h
  Intracellular free calcium (Fura-2/AM): Increased intracellular free calcium
C. trachomatis [1]; HeLa cells, EGFR siRNA, Ionomycin 1 μg/ml 1 h pre-treatment, Ct 24 h
  Inclusion formation in EGFR siRNA treated cells with or without Ionomycin: not able to rescue; also recorded: no significant difference
